Like-named read-outs stand apart in the source and are kept apart here. Values belong to the molecule of their own block, whether it stands above or below them.
Legend:
[1] = test system: fibrosarcoma cell line HT1080; experiment: Ferroptosis screening model (MTT method), Erastin-induced ferroptosis; format: cell-based, human
Method in brief: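 HT1080 cells adhered 24 h, then received compound plus Erastin ([…] final) for 72 h at 37 °C, 5% CO2, in triplicate. Viability by MTT with SDS solubilisation, absorbance at 570 nm; inhibition of ferroptosis fitted to give EC50.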

[2] = test system: rat middle cerebral artery occlusion (MCAO) stroke model; experiment: Rat middle cerebral artery occlusion (MCAO) stroke model, different doses; format: in vivo; conditions: for Infarct weight: tail vein injection, 24 h of reperfusion, TTC stain; for Inhibition rate of cerebral infarction: versus model group infarct range
Procedure: By rat middle cerebral artery occlusion (MCAO) stroke model (also called cerebral ischemia model), the therapeutic effect of the compound of the present invention on ischemic stroke in SD rats at different doses was studied. Male SD rats were selected and induced anesthesia by 2-3.0% isoflurane. The middle cerebral artery was blocked by the thread plug method, resulting in rat ischemia model; the ischemic rats were placed at room temperature and kept their body temperature being 37° C. 60 minutes after ischemia onset, the rats were scored by Bederson neurobehavioral scale to determine whether the model was successfully made. 90 min after ischemia onset, the thread plug was pulled out for reperfusion. […] After 24 h of reperfusion, the animals were scored by NSS scale to evaluate neurological deficit. And then the animals were dissected, brains were collected and subjected to TTC stain. […] The percentage of the weight of the infarct tissue based on the weight of the whole brain was regarded as the infarct range (%), and the inhibition rate (%) of each drug treatment group was calculated based on the infarct range.

[3] = Homo sapiens, HT-1080, 72 h, HT1080, ferroptosis inducer Erastin, 72 h, average of three tests, read-out: EC50
[4] = HT1080, ferroptosis inducer Erastin, 72 h, average of three tests, read-out: EC50
[5] = positive drug butylphthalide 10 mg/kg

Compound: CC(c1ccc2c(c1)Nc1ccccc1S2)S(=O)(=O)N1CCC(C(N)=O)CC1 (stereo not drawn) [Compound C47, 1-((1-(10H-phenothiazin-2-yl)ethyl)sulfonyl)piperidin-4-formamide]
EC50 [1, 3]: 225 nM

Compound: COc1ccccc1N1CCN(S(=O)(=O)C(C)c2ccc3c(c2)Nc2ccccc2S3)CC1 (stereo not drawn) [Compound C49, 2-(1-((4-(2-methoxylphenyl)piperazin-1-yl)sulfonyl)ethyl)-10H-phenothiazine]
EC50 [1, 4]: 228 nM

Compound: C=C(c1cnc(N2CCOCC2)nc1)c1ccc2c(c1)Nc1ccccc1S2 [Compound C51, 4-(5-(1-(10H-phenothiazin-2-yl)ethenyl)pyrimidin-2-yl)morpholine]
EC50 [1, 4]: 143 nM

Compound: CC(c1ccc2c(c1)Nc1ccccc1S2)S(=O)(=O)N1CCN(c2ccc(C#N)cc2)CC1 (stereo not drawn) [Compound C53, 4-(4-((1-(10H-phenothiazin-2-yl)ethyl)sulfonyl)piperazin-1-yl)benzonitrile]
EC50 [1, 3]: 182 nM

Compound: COc1cccc(N2CCN(S(=O)(=O)C(C)c3ccc4c(c3)Nc3ccccc3S4)CC2)c1 (stereo not drawn) [Compound C54, 2-(1-((4-(3-methoxylphenyl)piperazin-1-yl)sulfonyl)ethyl)-10H-phenothiazine]
EC50 [1, 3]: 165 nM

Compound: CC(c1ccc2c(c1)Nc1ccccc1S2)S(=O)(=O)N1CCN(c2ccc(C(F)(F)F)cc2)CC1 (stereo not drawn) [Compound C56, 2-(1-((4-(4-(trifluoromethyl)phenyl)piperazin-1-yl)sulfonyl)ethyl)-10H-phenothiazine]
EC50 [1, 3]: 213 nM

Compound: CCCCN1CCN(S(=O)(=O)C(C)c2ccc3c(c2)Nc2ccccc2S3)CC1 (stereo not drawn) [Compound C58, 2-(1-((4-butylpiperazin-1-yl)sulfonyl)ethyl)-10H-phenothiazine]
EC50 [1, 3]: 178 nM

Compound: Cc1ccc(N2CCN(S(=O)(=O)C(C)c3ccc4c(c3)Nc3ccccc3S4)CC2)cc1 (stereo not drawn) [Compound C59, 2-(1-((4-(p-methylphenyl)piperazin-1-yl)sulfonyl)ethyl)-10H-phenothiazine]
EC50 [1, 3]: 142 nM

Compound: CCOC(=O)c1ccc(NC2CCCCC2)c(N)c1 [Fer-1, Ferrostatin-1, reference compound]
EC50 [1, 4]: 60 nM

Compound: CCCCC1OC(=O)c2ccccc21 (stereo not drawn) [Positive drug, butylphthalide, reference compound]
NSS score ([2]; positive drug butylphthalide 10 mg/kg, after 24 h of reperfusion): 8.500 ± 1.401
Infarct weight [2, 5]: 0.193 ± 0.075 g
Infarct range ([2]; positive drug butylphthalide 10 mg/kg, infarct tissue weight as % of whole brain weight): 13.292 ± 4.476 %
Inhibition rate of cerebral infarction [2, 5]: 24.477%

Further molecules by falling EC50 [1, 3], results first:

EC50 [1, 3]: 129 nM
Compound: CC(c1ccc2c(c1)Nc1ccccc1S2)S(=O)(=O)N1CCN(c2cnccn2)CC1 (stereo not drawn) [Compound C57, 2-(1-((4-(pyrazin-2-yl)piperazin-1-yl)sulfonyl)ethyl)-10H-phenothiazine]

EC50 [1, 3]: 70 nM
Compound: CC(c1ccc2c(c1)Nc1ccccc1S2)S(=O)(=O)N1CCN(c2ccc([N+](=O)[O-])cc2)CC1 (stereo not drawn) [Compound C55, 2-(1-((4-(4-nitrophenyl)piperazin-1-yl)sulfonyl)ethyl)-10H-phenothiazine]

EC50 [1, 3]: 69 nM
Compound: CC(c1ccc2c(c1)Nc1ccccc1S2)S(=O)(=O)N1CCN(c2ncccn2)CC1 (stereo not drawn) [Compound C52, 2-(1-((4-(pyrimidin-2-yl)piperazin-1-yl)sulfonyl)ethyl)-10H-phenothiazine]

EC50 [1, 3]: 35 nM
Compound: CC1CN(S(=O)(=O)C(C)c2ccc3c(c2)Nc2ccccc2S3)CC(C)N1 (stereo not drawn) [Compound C48, 2-(1-((3,5-dimethylpiperazin-1-yl)sulfonyl)ethyl)-10H-phenothiazine]

EC50 [1, 3]: 0.5 nM
EC50 ([1]; Homo sapiens, HT-1080, HT1080, Erastin, read-out: EC50 value): ~1 nM
Compound: CC(c1ccc(N2CCN(C)CC2)cc1)c1ccc2c(c1)Nc1ccccc1S2 (stereo not drawn) [Compound A38, 2-(1-(4-(4-methylpiperazin-1-yl)phenyl)ethyl)-10H-phenothiazine]
Infarct weight ([2]; high dose 2.5 mg/kg): 0.126 ± 0.072 g
Inhibition rate of cerebral infarction ([2]; high dose 2.5 mg/kg): 50.885%
Infarct weight ([2]; low dose 0.5 mg/kg): 0.170 ± 0.041 g
Inhibition rate of cerebral infarction ([2]; low dose 0.5 mg/kg): 31.209%
Infarct weight ([2]; medium dose 1.25 mg/kg): 0.152 ± 0.064 g
Inhibition rate of cerebral infarction ([2]; medium dose 1.25 mg/kg): 38.968%
Infarct weight ([2]; very low dose 0.2 mg/kg): 0.187 ± 0.078 g
Inhibition rate of cerebral infarction ([2]; very low dose 0.2 mg/kg): 27.307%

Source: US11440909B2, “10H-phenothiazine ferroptosis inhibitor as well as the preparative method and the use thereof” (CHENGDU HENGHAO INVESTMENT CO. LIMITED, priority 2018, dated 2022)
